According to patent US12478617B2, “Lipidated peptide inhibitors of interleukin-23 receptor” (JANSSEN BIOTECH, INC., priority 2021, dated 2025):
Starred links: 1 amine or outer side, 2 acyl side, 3 side chain; linkers in the order of their positions; H or OH if unused. Positions of bridges follow the written chain, without caps; N, C: chain ends. Non-standard residues stand in square brackets, D forms with d. Residues, ends and D or L forms follow the SMILES beside them. Groups on a side chain read outwards from the residue. *: point of attachment. X7 = C[N+](C)(CCNC(=O)CC[C@H](NC(=O)CCCCCCCCCCCCCCCCC(=O)O)C(=O)O)CC(=O)*; X4 = O=C(O)CCCCCCCCCCCCCCC(=O)NC[C@H](NC(=O)CCCCCCCCCCCCCCC(=O)O)C(=O)*; Trp(7-Me) = Cc1cccc2c(C[C@H](N)C(=O)O)c[nH]c12; d(γGlu) = O=C(O)[C@@H](CCC(=O)[*:2])N[*:1]; C18 diacid = O=C(O)CCCCCCCCCCCCCCCCC(=O)*; C16 diacid = O=C(O)CCCCCCCCCCCCCCC(=O)*; γGlu = O=C(O)[C@H](CCC(=O)[*:2])N[*:1]; 2Nal = N[C@@H](Cc1ccc2ccccc2c1)C(=O)O; AEF = NCCOc1ccc(C[C@H](N)C(=O)O)cc1; PEG6 = NCCOCCOCCOCCOCCOCCOCCC(=O)O; Palmitoyl = CCCCCCCCCCCCCCCC(=O)*; 3Pal = N[C@@H](Cc1cccnc1)C(=O)O; Pen = CC(C)(S)[C@H](N)C(=O)O; Thp = NC1(C(=O)O)CCOCC1; AEEA = NCCOCCOCC(=O)O; Sar = CNCC(=O)O

Target: T1, IL-23R (Homo sapiens, UniProt Q5VWK5)
T1 construct: HEK293 cells containing IL-23R, IL-12RP31 and a firefly luciferase reporter gene driven by a STAT-inducible promoter (Promega); host or cells: HEK293
T1 sequence (Q5VWK5 24-629): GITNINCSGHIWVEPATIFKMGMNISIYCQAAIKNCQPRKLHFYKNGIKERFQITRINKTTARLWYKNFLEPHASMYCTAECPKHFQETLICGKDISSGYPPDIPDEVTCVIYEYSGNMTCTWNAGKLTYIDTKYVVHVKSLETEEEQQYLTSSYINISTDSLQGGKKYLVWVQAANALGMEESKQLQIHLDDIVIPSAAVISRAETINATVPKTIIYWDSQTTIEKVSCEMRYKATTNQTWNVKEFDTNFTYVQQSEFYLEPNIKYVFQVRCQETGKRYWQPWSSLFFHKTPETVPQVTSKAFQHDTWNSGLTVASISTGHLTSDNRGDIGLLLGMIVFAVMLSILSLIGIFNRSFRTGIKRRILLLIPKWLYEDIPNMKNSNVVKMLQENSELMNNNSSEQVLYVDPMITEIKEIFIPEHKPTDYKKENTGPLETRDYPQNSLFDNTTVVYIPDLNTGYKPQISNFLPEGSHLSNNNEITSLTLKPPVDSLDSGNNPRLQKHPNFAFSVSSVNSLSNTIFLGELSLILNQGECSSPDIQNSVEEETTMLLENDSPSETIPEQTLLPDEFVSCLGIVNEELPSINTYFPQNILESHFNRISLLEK
Test: IL23R Reporter Assay
Type: cell-based
Source text: IL-23 binding to IL-23 receptors results in the activation of the Signal Transducer and Activator of Transcription 3 (STAT3) by phosphorylation and downstream signaling events. Accordingly. the ability of the inhibitors described herein to block IL-23 action can be assessed by monitoring the status of STAT3 activation in response to IL-23. This may be accomplished in reporter cell assays or in intact cells such as peripheral blood mononuclear cells (PBMCs).
Compounds were serially diluted in 100% (v/v) DMSO) and plated using an Echo acoustic dispenser (Labcyte) into 1536-well non-treated black assay plates (Corning #9146). […] After 5 h at 37° C., 5% CO2, 95% relative humidity, cells were placed at 20° C. and treated with BioGlo reagent (Promega) according to the Manufacturer's instructions. Luminescence was measured on a Pherastar FSX (BMG LabTech).

| IC50 [nM] | Compound |
| --- | --- |
| 0.15 | CC(=O)NCCCC[C@@H]1NC(=O)[C@H](Cc2c[nH]c3c(C)cccc23)NC(=O)[C@H]([C@@H](C)O)NC(=O)[C@H](CC(N)=O)NC(=O)[C@@H](NC(C)=O)C(C)(C)SSC(C)(C)[C@@H](C(=O)N[C@@H](Cc2ccc(OCCN)cc2)C(=O)N[C@@H](Cc2ccc3ccccc3c2)C(=O)NC2(C(=O)N[C@@H](CCCCNC(=O)[C@H](CNC(=O)CCCCCCCCCCCCCCC(=O)O)NC(=O)CCCCCCCCCCCCCCC(=O)O)C(=O)N[C@@H](CC(N)=O)C(=O)N[C@@H](Cc3cccnc3)C(=O)N(C)CC(N)=O)CCOCC2)NC1=O [Example 114, MeCO-Pen*-N-T-7MeW-K(Ac)-Pen*-AEF-2Nal-THP-K(DAP-(C16OH)2)-N-3Pya-Sar-CONH2] (Ac-[Pen]NT[Trp(7-Me)]K(Ac)[Pen][AEF][2Nal][Thp]K(X4)N[3Pal][Sar]-NH2; disulfide 1-6) |
| 0.089 | CC(=O)NCCCC[C@@H]1NC(=O)[C@H](Cc2c[nH]c3c(C)cccc23)NC(=O)[C@H]([C@@H](C)O)NC(=O)[C@H](CC(N)=O)NC(=O)[C@@H](NC(C)=O)C(C)(C)SSC(C)(C)[C@@H](C(=O)N[C@@H](Cc2ccc(OCCN)cc2)C(=O)N[C@@H](Cc2ccc3ccccc3c2)C(=O)NC2(C(=O)N[C@@H](CCCCNC(=O)COCCOCCNC(=O)COCCOCCNC(=O)[C@@H]3CCCN3C(=O)CC[C@H](NC(=O)CCCCCCCCCCCCCCCCC(=O)O)C(=O)O)C(=O)N[C@@H](CC(N)=O)C(=O)N[C@@H](Cc3cccnc3)C(=O)N(C)CC(N)=O)CCOCC2)NC1=O [Example 105, MeCO-Pen*-N-T-7MeW-K(Ac)-Pen*-AEF-2Nal-THP-K(PEG2PEG2PgEC18OH)-N-3Pya-Sar-CONH2] (Ac-[Pen]NT[Trp(7-Me)]K(Ac)[Pen][AEF][2Nal][Thp]K([AEEA-AEEA-Pro-γGlu-C18 diacid])N[3Pal][Sar]-NH2; disulfide 1-6) |
| 0.077 | CC(=O)NCCCC[C@@H]1NC(=O)[C@H](Cc2c[nH]c3c(C)cccc23)NC(=O)[C@H]([C@@H](C)O)NC(=O)[C@H](CC(N)=O)NC(=O)[C@@H](NC(C)=O)C(C)(C)SSC(C)(C)[C@@H](C(=O)N[C@@H](Cc2ccc(OCCN)cc2)C(=O)N[C@@H](Cc2ccc3ccccc3c2)C(=O)NC2(C(=O)N[C@@H](CCCCNC(=O)COCCOCCNC(=O)COCCOCCNC(=O)C[N+](C)(C)CCNC(=O)CC[C@H](NC(=O)CCCCCCCCCCCCCCCCC(=O)O)C(=O)O)C(=O)N[C@@H](CC(N)=O)C(=O)N[C@@H](Cc3cccnc3)C(=O)N(C)CC(N)=O)CCOCC2)NC1=O [Example 118, MeCO-Pen*-N-T-7MeW-K(Ac)-Pen*-AEF-2Nal-THP-K(PEG2PEG2SP6gEC18OH)-N-3Pya-Sar-CONH2] (Ac-[Pen]NT[Trp(7-Me)]K(Ac)[Pen][AEF][2Nal][Thp]K([AEEA-AEEA-X7])N[3Pal][Sar]-NH2; disulfide 1-6) |
| 0.052 | CCCCCCCCCCCCCCCC(=O)N[C@@H](CCC(=O)NCCOCCOCC(=O)NCCOCCOCC(=O)NCCCC[C@@H]1NC(=O)[C@@H](NC(C)=O)C(C)(C)SSC(C)(C)[C@@H](C(=O)N[C@@H](Cc2ccc(OCCN)cc2)C(=O)N[C@@H](Cc2ccc3ccccc3c2)C(=O)NC2(C(=O)N[C@@H](CCCCNC(C)=O)C(=O)N[C@@H](CC(N)=O)C(=O)N[C@@H](Cc3cccnc3)C(=O)N(C)CC(N)=O)CCOCC2)NC(=O)[C@H](CCCCNC(C)=O)NC(=O)[C@H](Cc2c[nH]c3c(C)cccc23)NC(=O)[C@H]([C@@H](C)O)NC1=O)C(=O)O [Example 83, MeCO-Pen*-K(PEG2PEG2gEC16)-T-7MeW-K(Ac)-Pen*-AEF-2Nal-THP-K(Ac)-N-3Pya-Sar-CONH2] (Ac-[Pen]K([AEEA-AEEA-γGlu-Palmitoyl])T[Trp(7-Me)]K(Ac)[Pen][AEF][2Nal][Thp]K(Ac)N[3Pal][Sar]-NH2; disulfide 1-6) |
| 0.13 | CC(=O)NCCCC[C@@H]1NC(=O)[C@H](Cc2c[nH]c3c(C)cccc23)NC(=O)[C@H]([C@@H](C)O)NC(=O)[C@H](CC(N)=O)NC(=O)[C@@H](NC(=O)[C@@H](CCCNC(=N)N)NC(C)=O)C(C)(C)SSC(C)(C)[C@@H](C(=O)N[C@@H](Cc2ccc(OCCN)cc2)C(=O)N[C@@H](Cc2ccc3ccccc3c2)C(=O)NC2(C(=O)N[C@@H](CCCCNC(=O)COCCOCCNC(=O)COCCOCCNC(=O)CC[C@@H](NC(=O)CCCCCCCCCCCCCCCCC(=O)O)C(=O)O)C(=O)N[C@@H](CC(N)=O)C(=O)N[C@@H](Cc3cccnc3)C(=O)N(C)CC(N)=O)CCOCC2)NC1=O [Example 55, MeCO-r-Pen*-N-T-7MeW-K(Ac)-Pen*-AEF-2Nal-THP-K(PEG2PEG2DgEC18OH)-N-3Pya-Sar-CONH2] (Ac-[dR][Pen]NT[Trp(7-Me)]K(Ac)[Pen][AEF][2Nal][Thp]K([AEEA-AEEA-d(γGlu)-C18 diacid])N[3Pal][Sar]-NH2; disulfide 2-7) |

The remaining lines, values behind:

| Compound | IC50 [nM] |
| --- | --- |
| CC(=O)NCCCC[C@@H]1NC(=O)[C@H](Cc2c[nH]c3c(C)cccc23)NC(=O)[C@H]([C@@H](C)O)NC(=O)[C@H](CCCCNC(=O)COCCOCCNC(=O)COCCOCCNC(=O)CC[C@H](NC(=O)CCCCCCCCCCCCCCC(=O)O)C(=O)O)NC(=O)[C@@H](NC(=O)[C@@H](CCCNC(=N)N)NC(C)=O)C(C)(C)SSC(C)(C)[C@@H](C(=O)N[C@@H](Cc2ccc(OCCN)cc2)C(=O)N[C@@H](Cc2ccc3ccccc3c2)C(=O)NC2(C(=O)N[C@@H](CCC(=O)O)C(=O)N[C@@H](CC(N)=O)C(=O)N[C@@H](Cc3cccnc3)C(=O)N(C)CC(N)=O)CCOCC2)NC1=O [Example 21, MeCO-r-Pen*-K(PEG2PEG2gEC16OH)-T-7MeW-K(Ac)-Pen*-AEF-2Nal-THP-E-N-3Pya-Sar-CONH2] (Ac-[dR][Pen]K([AEEA-AEEA-γGlu-C16 diacid])T[Trp(7-Me)]K(Ac)[Pen][AEF][2Nal][Thp]EN[3Pal][Sar]-NH2; disulfide 2-7) | 0.033 |
| CC(=O)NCCCC[C@@H]1NC(=O)[C@H](Cc2c[nH]c3c(C)cccc23)NC(=O)[C@H]([C@@H](C)O)NC(=O)[C@H](CCCCNC(=O)COCCOCCNC(=O)COCCOCCNC(=O)CC[C@H](NC(=O)CCCCCCCCCCCCCCCCC(=O)O)C(=O)O)NC(=O)[C@@H](NC(=O)[C@@H](CCCNC(=N)N)NC(C)=O)C(C)(C)SSC(C)(C)[C@@H](C(=O)N[C@@H](Cc2ccc(OCCN)cc2)C(=O)N[C@@H](Cc2ccc3ccccc3c2)C(=O)NC2(C(=O)N[C@@H](CCCCNC(C)=O)C(=O)N[C@@H](CC(N)=O)C(=O)N[C@@H](Cc3cccnc3)C(=O)N(C)CC(N)=O)CCOCC2)NC1=O [Example 50, MeCO-r-Pen*-K(PEG2PEG2gEC18OH)-T-7MeW-K(Ac)-Pen*-AEF-2Nal-THP-K(Ac)-N-3Pya-Sar-CONH2] (Ac-[dR][Pen]K([AEEA-AEEA-γGlu-C18 diacid])T[Trp(7-Me)]K(Ac)[Pen][AEF][2Nal][Thp]K(Ac)N[3Pal][Sar]-NH2; disulfide 2-7) | 0.1 |
| CC(=O)NCCCC[C@@H]1NC(=O)[C@H](Cc2c[nH]c3c(C)cccc23)NC(=O)[C@H]([C@@H](C)O)NC(=O)[C@H](CC(N)=O)NC(=O)[C@@H](NC(C)=O)C(C)(C)SSC(C)(C)[C@@H](C(=O)N[C@@H](Cc2ccc(OCCN)cc2)C(=O)N[C@@H](Cc2ccc3ccccc3c2)C(=O)NC2(C(=O)N[C@@H](CCCCNC(=O)COCCOCCNC(=O)COCCOCCNC(=O)CC[C@H](NC(=O)CCCCCCCCCCCCCCC(=O)O)C(=O)O)C(=O)N[C@@H](CC(N)=O)C(=O)N[C@@H](Cc3cccnc3)C(=O)N(C)CC(N)=O)CCOCC2)NC1=O [Example 19, MeCO-Pen*-N-T-7MeW-K(Ac)-Pen*-AEF-2Nal-THP-K(PEG2PEG2gEC16OH)-N-3Pya-Sar-CONH2] (Ac-[Pen]NT[Trp(7-Me)]K(Ac)[Pen][AEF][2Nal][Thp]K([AEEA-AEEA-γGlu-C16 diacid])N[3Pal][Sar]-NH2; disulfide 1-6) | 0.037 |
| CC(=O)NCCCC[C@@H]1NC(=O)[C@H](Cc2c[nH]c3c(C)cccc23)NC(=O)[C@H]([C@@H](C)O)NC(=O)[C@H](CC(N)=O)NC(=O)[C@@H](NC(C)=O)C(C)(C)SSC(C)(C)[C@@H](C(=O)N[C@@H](Cc2ccc(OCCN)cc2)C(=O)N[C@@H](Cc2ccc3ccccc3c2)C(=O)NC2(C(=O)N[C@@H](CCCCNC(=O)COCCOCCNC(=O)CCOCCOCCOCCOCCOCCOCCNC(=O)CC[C@H](NC(=O)CCCCCCCCCCCCCCCCC(=O)O)C(=O)O)C(=O)N[C@@H](CC(N)=O)C(=O)N[C@@H](Cc3cccnc3)C(=O)N(C)CC(N)=O)CCOCC2)NC1=O [Example 39, MeCO-Pen*-N-T-7MeW-K(Ac)-Pen*-AEF-2Nal-THP-K(PEG2PEG6gEC18OH)-N-3Pya-Sar-CONH2] (Ac-[Pen]NT[Trp(7-Me)]K(Ac)[Pen][AEF][2Nal][Thp]K([AEEA-PEG6-γGlu-C18 diacid])N[3Pal][Sar]-NH2; disulfide 1-6) | 0.048 |
